Reference: patent US9365541B2, “Compounds for use in the treatment of parasitic diseases” (IRBM—SCIENCE PARK S.P.A., priority 2012, dated 2016)

Experiments:
human HDAC1 = biological target: T1, human HDAC1 (Homo sapiens, UniProt Q13547); assay: Homo sapiens HDAC1 inhibition assay (Fluor-de-Lys, enzymatic); format: biochemical; settings: human HDAC enzymatic assay; read-out: hHDAC IC50
T1 construct: made in house; host or cells: HeLa (ATCC CCL-2), mammalian cells
Outline: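 Product developed with trypsin developer containing 2 μM TSA to stop the reaction; fluorescence measures deacetylase activity, inversely related to inhibition.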

[1] = system: Plasmodium falciparum 3D7; assay: P. falciparum growth inhibition assay (Pf-LDH); format: cell-based; settings: Plasmodium falciparum, Erythrocyte; P. falciparum 3D7 infected erythrocytes, 72 h incubation, PfLDH readout
Outline: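 P. falciparum 3D7 (chloroquine-sensitive) at 0.25% parasitemia and 2% hematocrit was incubated with compound for 72 h at 37° C under 4% CO2/3% O2/93% N2. After freeze-thaw, PfLDH activity was read at 650 nm with lactate/APAD/NBT/diaphorase mix (pH 8.0).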

T1 sequence (Q13547 whole entry): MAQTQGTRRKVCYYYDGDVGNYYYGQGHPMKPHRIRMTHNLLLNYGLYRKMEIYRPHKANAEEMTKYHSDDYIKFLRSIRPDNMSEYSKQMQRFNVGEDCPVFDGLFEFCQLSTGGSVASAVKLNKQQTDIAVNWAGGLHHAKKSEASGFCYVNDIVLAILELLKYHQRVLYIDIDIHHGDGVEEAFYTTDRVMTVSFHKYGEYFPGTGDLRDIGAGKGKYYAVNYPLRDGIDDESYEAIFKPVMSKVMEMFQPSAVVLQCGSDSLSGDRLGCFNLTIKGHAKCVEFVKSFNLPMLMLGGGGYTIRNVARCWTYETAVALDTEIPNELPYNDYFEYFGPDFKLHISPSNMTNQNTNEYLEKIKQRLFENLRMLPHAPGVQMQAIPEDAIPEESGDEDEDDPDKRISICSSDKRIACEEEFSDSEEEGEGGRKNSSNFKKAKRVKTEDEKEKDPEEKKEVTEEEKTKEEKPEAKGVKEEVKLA

Row | SMILES | IC50 (human HDAC1) | EC50 [1]
1 | CNC(=O)CCCCC[C@H](NC(=O)Cn1ccnn1)c1ncc(-c2ccc(-c3ccn(C)n3)cc2)[nH]1 [Entry 69, (S)-7-(2-(1H-1,2,3-triazol-1-yl)acetamido)-N-methyl-7-(5-(4-(1-methyl-1H-pyrazol-3-yl)phenyl)-1H-imidazol-2-yl)heptanamide] | > 5000 nM | > 5000 nM
2 | COc1ccc2[nH]c(C)c(CC(=O)N[C@@H](CCCCCC(N)=O)c3nnc(-c4ccc5ccccc5c4)[nH]3)c2c1 [Entry 70, (S)-7-(2-(5-methoxy-2-methyl-1H-indol-3-yl)acetamido)-7-(5-(naphthalen-2-yl)-4H-1,2,4-triazol-3-yl)heptanamide] | < 1000 nM | < 1000 nM
3 | CNC(=O)CCCCC[C@H](NC(=O)C1CN(C)C1)c1ncc(-c2cc3ccccc3nc2OC)o1 [Entry 71, (S)-N-(1-(5-(2-methoxyquinolin-3-yl)oxazol-2-yl)-7-(methylamino)-7-oxoheptyl)-1-methylazetidine-3-carboxamide] | < 1000 nM | < 1000 nM
4 | CNC(=O)CCCCC[C@H](NC(=O)OCc1ccccc1)c1ncc(-c2ccc3ccccc3c2)[nH]1 [Entry 72, (S)-benzyl (7-(methylamino)-1-(5-(naphthalen-2-yl)-1H-imidazol-2-yl)-7-oxo-heptyl)carbamate] | < 1000 nM | 1000 to 5000 nM
5 | CNC(=O)CCCCC[C@H](NC(=O)c1cc2cc(OC)ccc2[nH]1)c1ncc(-c2ccc3ccccc3c2)[nH]1 [Entry 73, (S)-5-methoxy-N-(7-(methylamino)-1-(5-(naphthalen-2-yl)-1H-imidazol-2-yl)-7-oxoheptyl)-1H-indole-2-carboxamide] | 1000 to 5000 nM | 1000 to 5000 nM
6 | CNC(=O)CCCCC[C@H](NC(=O)Cn1c(=O)oc2ccccc21)c1ncc(-c2ccc3ccccc3c2)[nH]1 [Entry 74] | < 1000 nM | 1000 to 5000 nM
7 | CNC(=O)CCCCC[C@H](NC(=O)Cc1c(C)[nH]c2ccc(OC)cc12)c1ncc(-c2ccc3ccccc3c2)[nH]1 [Entry 75, (S)-7-(2-(5-methoxy-2-methyl-1H-indol-3-yl)acetamido)-N-methyl-7-(5-(naphthalen-2-yl)-1H-imidazol-2-yl)heptanamide] | < 1000 nM | < 1000 nM
8 | CNC(=O)CCCCC[C@H](NC(=O)Cc1cnccn1)c1ncc(-c2cc3ccccc3nc2OC)[nH]1 [Entry 76] | 1000 to 5000 nM | 1000 to 5000 nM
9 | CNC(=O)CCCCC[C@H](NC(=O)c1nnc(C)o1)c1ncc(-c2cc3ccccc3nc2OC)[nH]1 [Entry 77, (S)-N-(1-(5-(2-methoxyquinolin-3-yl)-1H-imidazol-2-yl)-7-(methylamino)-7-oxoheptyl)-5-methyl-1,3,4-oxadiazole-2-carboxamide] | 1000 to 5000 nM | 1000 to 5000 nM
10 | CNC(=O)CCCCC[C@H](NC(=O)c1cncs1)c1ncc(-c2ccc(CN(C)C)cc2)[nH]1 [Entry 78, (S)-N-(1-(5-(4-((dimethyl-amino)methyl)phenyl)-1H-imidazol-2-yl)-7-(methylamino)-7-oxoheptyl)thiazole-5-carboxamide] | 1000 to 5000 nM | > 5000 nM
11 | CNC(=O)CCCCC[C@H](NC(=O)c1cncs1)c1ncc(-c2cccc3c2OCCO3)[nH]1 [Entry 79] | 1000 to 5000 nM | > 5000 nM
12 | CNC(=O)CCCCC[C@H](NC(=O)c1cncs1)c1ncc(-c2cc3ccccc3nc2Cl)[nH]1 [Entry 80, (S)-N-(1-(5-(2-chloroquinolin-3-yl)-1H-imidazol-2-yl)-7-(methylamino)-7-oxoheptyl)thiazole-5-carboxamide] | 1000 to 5000 nM | 1000 to 5000 nM
13 | CNC(=O)CCCCC[C@H](NC(=O)c1cncs1)c1ncc(-c2ccc(-n3nc(C)cc3C)cc2)[nH]1 [Entry 81, (S)-N-(1-(5-(4-(3,5-dimethyl-1H-pyrazol-1-yl)phenyl)-1H-imidazol-2-yl)-7-(methylamino)-7-oxoheptyl)thiazole-5-carboxamide] | > 5000 nM | > 5000 nM
14 | CNC(=O)CCCCC[C@H](NC(=O)c1cc(C)n(-c2ccccc2)n1)c1ncc(-c2ccc3ccccc3c2)[nH]1 [Entry 82, (S)-5-methyl-N-(7-(methylamino)-1-(5-(naphthalen-2-yl)-1H-imidazol-2-yl)-7-oxoheptyl)-1-phenyl-1H-pyrazole-3-carboxamide] | > 5000 nM | > 5000 nM
15 | CNC(=O)CCCCC[C@H](NC(=O)c1ccc(-n2cccc2)nc1)c1ncc(-c2ccc3ccccc3c2)[nH]1 [Entry 83, (S)-N-(7-(methylamino)-1-(5-(naphthalen-2-yl)-1H-imidazol-2-yl)-7-oxoheptyl)-6-(1H-pyrrol-1-yl)nicotinamide] | 1000 to 5000 nM | 1000 to 5000 nM
16 | CNC(=O)CCCCC[C@H](NC(=O)c1nnc(C)s1)c1ncc(-c2ccc3ccccc3c2)[nH]1 [Entry 84, (S)-5-methyl-N-(7-(methylamino)-1-(5-(naphthalen-2-yl)-1H-imidazol-2-yl)-7-oxoheptyl)-1,3,4-thiadiazole-2-carboxamide] | 1000 to 5000 nM | > 5000 nM

Row | SMILES | IC50 (human HDAC1) | EC50 [1]
17 | CNC(=O)CCCCC[C@H](NC(=O)C(C)n1cccn1)c1ncc(-c2ccc3ccccc3c2)[nH]1 (stereo partly drawn) [Entry 85, (7S)-7-(2-(1H-pyrazol-1-yl)propanamido)-N-methyl-7-(5-(naphthalen-2-yl)-1H-imidazol-2-yl)heptanamide] | 1000 to 5000 nM | 1000 to 5000 nM
18 | CNC(=O)CCCCC[C@H](NC(=O)c1cc(-c2ccco2)n[nH]1)c1ncc(-c2ccc3ccccc3c2)[nH]1 [Entry 86, (S)-3-(furan-2-yl)-N-(7-(methylamino)-1-(5-(naphthalen-2-yl)-1H-imidazol-2-yl)-7-oxoheptyl)-1H-pyrazole-5-carboxamide] | 1000 to 5000 nM | 1000 to 5000 nM
19 | CNC(=O)CCCCC[C@H](NC(=O)c1ccccc1-n1cnnn1)c1ncc(-c2ccc3ccccc3c2)[nH]1 [Entry 87, (S)-N-(7-(methylamino)-1-(5-(naphthalen-2-yl)-1H-imidazol-2-yl)-7-oxoheptyl)-2-(1H-tetrazol-1-yl)benzamide] | 1000 to 5000 nM | 1000 to 5000 nM
20 | CNC(=O)CCCCC[C@H](NC(=O)c1cccc2nccnc12)c1ncc(-c2ccc3ccccc3c2)[nH]1 [Entry 88, (S)-N-(7-(methylamino)-1-(5-(naphthalen-2-yl)-1H-imidazol-2-yl)-7-oxo-heptyl)quinoxaline-5-carboxamide] | > 5000 nM | > 5000 nM
21 | CNC(=O)CCCCC[C@H](NC(=O)Cn1cncn1)c1ncc(-c2ccc3ccncc3c2)[nH]1 [Entry 89, (S)-7-(2-(1H-1,2,4-triazol-1-yl)acetamido)-7-(5-(isoquinolin-7-yl)-1H-imidazol-2-yl)-N-methylheptanamide] | 1000 to 5000 nM | 1000 to 5000 nM
22 | CNC(=O)CCCCC[C@H](NC(=O)c1cnn(C(C)C)c1)c1ncc(-c2ccc3ccncc3c2)[nH]1 [Entry 90, (S)-1-isopropyl-N-(1-(5-(isoquinolin-7-yl)-1H-imidazol-2-yl)-7-(methylamino)-7-oxoheptyl)-1H-pyrazole-4-carboxamide] | < 1000 nM | < 1000 nM
23 | CNC(=O)CCCCC[C@H](NC(=O)C1CCC1(F)F)c1ncc(-c2ccc(-c3ccn(C)n3)cc2)[nH]1 (stereo partly drawn) [Entry 91, 2,2-difluoro-N-((S)-1-(5-(4-(1-methyl-1H-pyrazol-3-yl)phenyl)-1H-imidazol-2-yl)-7-(methylamino)-7-oxo-heptyl)cyclobutane-carboxamide] | > 5000 nM | > 5000 nM
24 | CNC(=O)CCCCC[C@H](NC(=O)CC1=CSC2=NCCCN12)c1ncc(-c2ccc(-c3ccn(C)n3)cc2)[nH]1 [Entry 92, (S)-7-(2-(6,7-dihydro-5H-thiazolo[3,2-a]pyrimidin-3-yl)acetamido)-N-methyl-7-(5-(4-(1-methyl-1H-pyrazol-3-yl)phenyl)-1H-imidazol-2-yl)heptanamide] | 1000 to 5000 nM | > 5000 nM
25 | CNC(=O)CCCCC[C@H](NC(=O)OCc1ccccc1)c1ncc(-c2ccc3ccncc3c2)[nH]1 [Entry 93, (S)-benzyl (1-(5-(isoquinolin-7-yl)-1H-imidazol-2-yl)-7-(methylamino)-7-oxoheptyl)carbamate] | < 1000 nM | < 1000 nM
26 | CCc1nc2ccccc2n1CCC(=O)N[C@@H](CCCCCC(=O)NC)c1nnc(-c2ccc3ccccc3c2)o1 [Entry 94, (S)-7-(3-(2-ethyl-1H-benzo[d]imidazol-1-yl)propanamido)-N-methyl-7-(5-(naphthalen-2-yl)-1,3,4-oxadiazol-2-yl)heptanamide] | 1000 to 5000 nM | 1000 to 5000 nM
27 | CNC(=O)CCCCC[C@H](NC(=O)c1cncs1)c1ncc(-c2ccc3ccccc3c2)[nH]1 [Entry 95, (S)-N-(7-(methylamino)-1-(5-(naphthalen-2-yl)-1H-imidazol-2-yl)-7-oxo-heptyl)thiazole-5-carboxamide] | < 1000 nM | < 1000 nM
28 | CNC(=O)CCCCC[C@H](NC(=O)c1cncs1)c1ncc(-c2cc3ccccc3cc2OC)[nH]1 [Entry 97, (S)-N-(1-(5-(3-methoxynaphthalen-2-yl)-1H-imidazol-2-yl)-7-(methylamino)-7-oxoheptyl)thiazole-5-carboxamide] | < 1000 nM | < 1000 nM
29 | CNC(=O)CCCCC[C@H](NC(=O)C1CN(C)C1)c1ncc(-c2cc3ccccc3nc2OC)[nH]1 [Entry 98, (S)-N-(1-(5-(2-methoxyquinolin-3-yl)-1H-imidazol-2-yl)-7-(methylamino)-7-oxoheptyl)-1-methylazetidine-3-carboxamide] | 1000 to 5000 nM | 1000 to 5000 nM
30 | CNC(=O)CCCCC[C@H](NC(=O)CCN1CCCCC1)c1ncc(-c2cc3ccccc3nc2OC)[nH]1 [Entry 99] | < 1000 nM | 1000 to 5000 nM
31 | CNC(=O)CCCCC[C@H](NC(=O)C12CC3CC(CC(C3)C1)C2)c1ncc(-c2ccc(C(F)(F)F)cc2)[nH]1 [Entry 100] | > 5000 nM | 1000 to 5000 nM
